For data set [1], the target named is T1, HIV-1 protease (Human immunodeficiency virus type 1 group M subtype B, UniProt P04585).
T1 construct: Recombinant HIV-1 protease (>96% purity); purchased Bachem Bioscience Inc. (King of Prussia, PA)
The data set can be described thus: biochemical. The settings on record: read-out: Inhib of HIV-Protease IC50. The source says:
The testing of specific 5,6-dihydropyrones as inhibitors of the HIV aspartyl protease, based on the study of the hydrolysis of an undecapeptide enzyme substrate, and the testing of the 5,6-dihydropyrones as inhibitors of viral growth and infectivity, based on the study of infection of H9 cell lines by the HIV-1iiib strain, are also disclosed. […] The methods employed follow the procedures of Tummino, et al. (Archives of Biochemistry and Biophysics 1995, 316, 523).
(§1) The compounds of the present invention were evaluated for their in vitro inhibition of HIV-1 protease and for their antiviral efficacy in HIV infected lymphocytes.
Recombinant HIV-1 protease (>96% purity) and HIV protease substrate III (the undecapeptide H-His-Lys-Ala-Arg-Val-Leu-Nph-Glu-Ala-Nle-Ser-NH2,>97% purity) were purchased from Bachem Bioscience Inc. (King of Prussia, PA).
The methods employed follow the procedures of Tummino, et al. (Archives of Biochemistry and Biophysics 1995, 316, 523). […] (total volume, 100 μl). […] The final inhibitor concentrations used were 0 (0.1, 0.2, in some experiments), 0.5, 1, 2, 5, 10, 20, 50, and 100 μM. The solution was mixed, incubated for 5 minutes and the reaction quenched by addition of trifluoracetic acid, 2% final. The (leu-p-nitro-phe) bond of the substrate is cleaved by the enzyme and substrate and products separated by reverse-phase HPLC. Absorbance was measured at 220 nm, peak areas determined, and percentage conversion to product used to calculate percentage control (=[% conversion (+inhibitor)/% conversion (-inhibitor)]×100).

In data set [2] the test system is HIV in lymphocyte derived CEM cells. The data set can be described thus: Cellular Infection Assay, antiviral efficacy in HIV infected CEM cells (XTT cytopathic procedure). The data set is classed as cell-based. The settings on record: Human immunodeficiency virus 1, CCRF-CEM; for EC95: protecting the cells 95% relative to untreated control; for EC50: read-out: Antiviral Efficacy EC50. The method, then: as §1
(§2) Compounds were tested in lymphocyte derived CEM cells using the XTT cytopathic procedures and were performed at Southern Research Institute (Buckheit, et. al. Antiviral Res. 1993, 21, 247; see also Weislow, et al. J Nat. Cancer Inst., 1989, 81, 577). Compound concentrations were 0.32, 1, 3.2, 10, 32 and 100 uM. The EC50 represents the concentration of agent which reduces HIV cytopathic effects 50% relative to untreated control. EC95 represents the concentration of agent protecting the cells 95% relative to untreated control. Cellular toxicity of the agents are estimated from the TC50 which represents the concentration of the agent which inhibits 50% of the viability of uninfected cells.

Data set [3] in a line: Cellular toxicity in uninfected CEM cells (TC50). The data set is classed as cell-based. To be noted: human, inhibits 50% of the viability of uninfected cells. How it is done: as §2
The mark [4] stands for this setting: 6.0 nM HIV-1 protease, 40 μM substrate III, 37° C., 5 minutes.
Setting [5] is: CEM cells, reduces HIV cytopathic effects 50% relative to untreated control.

What is called IC50 is the concentration at which inhibition is half-maximal. As a reminder, the EC95 is the concentration needed for an effect of 95%. The term EC50 denotes the concentration that produces a half-maximal response. Usually CC50 stands for the concentration that lowers cell viability or growth by half.

Where two headings read alike, the source gives them in different places.

For `Cc1cc(SC2=C(O)C[C@@](CCc3ccccc3)(c3ccccc3)OC2=O)c(C(C)(C)C)cc1CO` [Example 17, 3-(tert-Butyl4-hydroxymethyl-5-methyl-phenylsulfanyl)-4-hydroxy-6-phenethyl-6-phenyl-5,6-dihydro-pyran-2-one (S isomer)], the IC50 in data set [1] (setting [4]) was found to be 0.0039 µM. Besides, in data set [2] (CEM cells), the EC95 stood at 7.5 µM. Besides, the EC50 in data set [2] (setting [5]) is 1.9 µM. In data set [3], this compound had a CC50 of 60 µM.

As for `Cc1cc(SC2=C(O)CC(CCc3ccc(O)cc3)(CCc3ccc(O)cc3)OC2=O)c(C(C)(C)C)cc1N` [Example 20, 3-(4-Amino-2-tert-butyl-5-methyl-phenylsulfanyl)-4-hydroxy-6,6-bis[2-(4-hydroxy-phenyl)ethyl]-5,6-dihydro-pyran-2-one], the IC50 in data set [1] (setting [4]) is 0.0029 µM. Moreover, in data set [2] (CEM cells), the EC95 was determined as 9.6 µM. For the same compound, the EC50 in data set [2] (setting [5]) turned out to be 5 µM. In data set [3], this compound returned a CC50 of 65 µM.

On to `Cc1cc(SC2=C(O)CC(CCc3cccc(O)c3)(CCc3cccc(O)c3)OC2=O)c(C(C)(C)C)cc1CO` [Example 21, 3-(2-tert-Butyl-4-hydroxymethyl-5-methyl-phenylsulfanyl)-4-hydroxy-6,6-bis-[2-(3-hydroxy-phenyl)ethyl]-5,6-dihydro-pyran-2-one], for which the IC50 in data set [1] (setting [4]) amounted to 0.0021 µM. Besides, in data set [2] (CEM cells), the EC95 was 9.3 µM. Besides, the EC50 in data set [2] (setting [5]) came to 4.8 µM. This compound came in with a CC50 in data set [3] of 66 µM.

Consider `Cc1cc(SC2=C(O)CC(CCc3cccc(O)c3)(CCc3cccc(O)c3)OC2=O)c(C(C)(C)C)cc1OS(=O)(=O)N(C)C` [Example 22, Dimethyl-sulfamic acid 5-tert-butyl-4-{4-hydroxy-6,6-bis-[2-(3-hydroxy-phenyl)-ethyl]-2-oxo-5,6-dihydro-2H-pyran-3-yisulfanyl}-2-methyl-phenyl ester], for which the IC50 in data set [1] (setting [4]) amounted to 0.009 µM. The compound also gave a 95% effect concentration (EC95) in data set [2] (CEM cells) of 8.3 µM. Moreover, the EC50 in data set [2] (setting [5]) came out at 2.3 µM. This compound came in with a CC50 in data set [3] of 66 µM.

Take `COc1cc(CCC2(CCc3ccc(O)c(OC)c3)CC(O)=C(Sc3cc(C)c(OCCO)cc3C(C)(C)C)C(=O)O2)ccc1O` [Example 23, 3-[2-tert-Butyl-4-(2-hydroxy-ethoxy)-5-methyl-phenylsulfanyl]-4-hydroxy-6,6-bis [2-(4-hydroxy-3-methoxy-phenyl)-ethyl]-5,6-dihydro-pyran-2-one]: the IC50 in data set [1] (setting [4]) was determined as 0.0034 µM. Also, the EC95 in data set [2] (CEM cells) came out at 7.9 µM. In data set [2] (setting [5]), the EC50 is 2 µM. Further, the CC50 in data set [3] came out at 61 µM.

For `Cc1cc(SC2=C(O)CC(CCc3ccccc3)(c3ccc(OCCN4CCNCC4)cc3)OC2=O)c(C(C)(C)C)cc1OS(=O)(=O)N(C)C` (centres unmarked) [Example 26, Dimethyl-sulfamic acid 5-tert-butyl-4-{4-hydroxy-2-oxo-6-phenethyl-6-[4-(2-piperazin-1-yl-ethoxy)-phenyl]-5,6-dihydro-2H-pyran-3-ylsulfanyl}-2-methyl-phenyl ester], the IC50 in data set [1] (setting [4]) came to 0.0051 µM. Further, the EC50 in data set [2] was determined as 5.1 µM. In addition, the EC95 in data set [2] (CEM cells) was 9.3 µM. In data set [3], the CC50 is more than 100 µM.

In the case of `CCNS(=O)(=O)Oc1cc(C(C)(C)C)c(SC2=C(O)CC(CCc3ccc(O)cc3)(CCc3ccc(O)cc3)OC2=O)cc1C` [Example 28], the IC50 in data set [1] (setting [4]) came to 0.0013 µM. Besides, the 95% effect level in data set [2] (CEM cells) (EC95) was put at 9.4 µM. In addition, in data set [2] (setting [5]), the EC50 amounted to 5.5 µM. Moreover, half-maximal cytotoxicity in data set [3] (CC50) was put at 67 µM.

Take `CCNS(=O)(=O)Oc1cc(C(C)(C)C)c(SC2=C(O)CC(CCc3ccc(N)cc3)(CCc3ccc(N)cc3)OC2=O)cc1C` [Example 29, Ethyl-sulfamic acid 5-tert-butyl-4-{6,6-bis-[2-(4-amino-phenyl)-ethyl]-4-hydroxy-2-oxo-5,6-dihydro-2H-pyran-3-ylsulfanyl}2-methyl-phenyl ester]: in data set [1] (setting [4]), the IC50 is 0.0018 µM. The EC95 in data set [2] (CEM cells) was 2.9 µM. Besides, the concentration giving a half-maximal response (EC50) in data set [2] (setting [5]) came out at 1.2 µM. In data set [3], the CC50 was determined as 66 µM.

For `Cc1cc(SC2=C(O)CC(CCc3ccc(O)cc3)(CCc3ccc(O)cc3)OC2=O)c(C(C)(C)C)cc1OS(=O)(=O)N1CCN(C)CC1` [Example 30, 4-Methyl-piperazine-1-sulfonic acid 5-tert-butyl-4-{4-hydroxy-6,6-bis-[2-(4-hydroxy-phenyl)-ethyl]-2-oxo-5,6-dihydro-2H-pyran-3-ylsulfanyl}-2-methyl-phenyl ester], in data set [1] (setting [4]), the IC50 was found to be 0.0055 µM. It took 9.3 µM to reach the 95% level in data set [2] (CEM cells) (EC95). In data set [2] (setting [5]), the EC50 was 5 µM. The compound also had a CC50 in data set [3] of 66 µM.

For `Cc1cc(SC2=C(O)CC(C)(CCc3ccc(O)cc3)OC2=O)c(C(C)(C)C)cc1OS(=O)(=O)N1CCN(C)CC1` (centres unmarked) [Example 31, 4-Methyl-piperazine-1-sulfonic acid 5-tert-butyl-4-{4-hydroxy-6-[2-(4-hydroxy-phenyl)-ethyl]-6-methyl-2-oxo-5,6-dihydro-2H-pyran-3-ylsulfanyl}-2-methyl-phenyl ester], the IC50 in data set [1] (setting [4]) stood at 0.0071 µM. Besides, in data set [2] (CEM cells), the EC95 worked out at 8.4 µM. For the same compound, the EC50 in data set [2] (setting [5]) is 2.3 µM. This compound also displayed a CC50 in data set [3] of more than 100 µM.

As for `Cc1ccc(C(C)(C)C)c(SC2=C(O)CC(CCc3ccccc3)(c3ccc(OCCN4CCNCC4)cc3)OC2=O)c1` (centres unmarked) [Example 35, 3-(2-tert-Butyl-5-methyl-phenylsulfanyl)-4-hydroxy-6-phenethyl-6-[4-(2-piperazin-1-yl-ethoxy)-phenyl]-5,6-dihydro-pyran-2-one], in data set [1] (setting [4]), the IC50 was found to be 0.0063 µM. In data set [2] (CEM cells), this compound returned an EC95 of 8 µM. Also, the EC50 in data set [2] (setting [5]) amounted to 3.5 µM. Moreover, the CC50 in data set [3] was found to be 84 µM.

In the case of `Cc1cc(SC2=C(O)CC(CCc3ccc(O)cc3)(c3ccccc3)OC2=O)c(C(C)(C)C)cc1CO` (centres unmarked) [Example 36, 3-(2-tert-Butyl-4-hydroxymethyl-5-methyl-phenylsulfanyl)-4-hydroxy-6-[2-(4-hydroxy-phenyl)-ethyl]-6-phenyl-5,6-dihydro-pyran-2-one], the IC50 in data set [1] (setting [4]) was found to be 0.0016 µM. Besides, the concentration for an effect of 95% (EC95) in data set [2] (CEM cells) was 20 µM. The EC50 in data set [2] (setting [5]) was found to be 4.7 µM. The compound also had a CC50 in data set [3] of more than 100 µM.

For `Cc1cc(SC2=C(O)CC(CCc3cccc(O)c3)(c3ccccc3)OC2=O)c(C(C)(C)C)cc1CO` (centres unmarked) [Example 37, 3-(2-tert-Butyl-4-hydroxymethyl-5-methyl-phenylsulfanyl)-4-hydroxy-6-[2-(3-hydroxy-phenyl)-ethyl]-6-phenyl-5,6-dihydro-pyran-2-one], the IC50 in data set [1] was 0.0025 µM. Further, in data set [2] (setting [5]), the EC50 was 6.1 µM. Moreover, in data set [3], the CC50 is more than 100 µM.

With `Cc1cc(SC2=C(O)C[C@@](CCc3ccc(O)cc3)(C(C)C)OC2=O)c(C(C)(C)C)cc1CO` [Example 38, (S)-3-(2-tert-Butyl-4-hydroxymethyl-5-methyl-phenylsulfanyl)-4-hydroxy-6-[2-(4-hydroxy-phenyl)-ethyl]-6-isopropyl-5,6-dihydro-pyran-2-one (+)], in data set [1], the IC50 turned out to be 0.001 µM. The same compound gave an EC95 in data set [2] (CEM cells) of 1 µM. Further, in data set [2] (setting [5]), the EC50 was less than 0.3 µM. This compound also displayed a half-maximal cytotoxic concentration (CC50) in data set [3] of more than 100 µM.

Regarding `Cc1cc(SC2=C(O)CC(CCc3cccc(O)c3)(C3CCCC3)OC2=O)c(C(C)(C)C)cc1CO` (centres unmarked) [Example 39, 3-(2-tert-Butyl-4-hydroxymethyl-5-methyl-phenylsulfanyl)-6-cyclopentyl-4-hydroxy-6-[2-(3-hydroxy-phenyl)-ethyl]-5,6-dihydro-pyran-2-one], in data set [1] (setting [4]), the IC50 is 0.0019 µM. In data set [2] (CEM cells), the 95% effect level (EC95) was put at 0.6 µM. For the same compound, the EC50 in data set [2] (setting [5]) is less than 0.3 µM. Further, in data set [3], the CC50 was more than 100 µM.

As for `Cc1cc(SC2=C(O)CC(C)(CCc3ccc(O)cc3)OC2=O)c(C(C)(C)C)cc1OS(N)(=O)=O` (centres unmarked) [Example 43], in data set [1] (setting [4]), the IC50 was 0.0018 µM. Moreover, in data set [2] (CEM cells), the EC95 is 9.4 µM. In addition, the EC50 in data set [2] (setting [5]) is 5.2 µM. Also, it took 69 µM to reach half-maximal cytotoxicity in data set [3] (CC50).

Consider `Cc1cc(SC2=C(O)CC(CCc3ccccc3)(c3ccc(OCCO)cc3)OC2=O)c(C(C)(C)C)cc1OS(=O)(=O)N1CCN(C)CC1` (centres unmarked) [Example 46], for which the IC50 in data set [1] (setting [4]) came out at 0.012 µM. This compound gave an EC95 in data set [2] (CEM cells) of 9.8 µM. In addition, the EC50 in data set [2] (setting [5]) was 5.4 µM. This compound also returned a CC50 in data set [3] of 58 µM.

In the case of `CCNS(=O)(=O)Oc1cc(C(C)(C)C)c(SC2=C(O)CC(CCc3ccc(O)c(OC)c3)(c3ccc(OCCO)cc3)OC2=O)cc1C` (centres unmarked) [Example 48], the half-inhibitory concentration (IC50) in data set [1] (setting [4]) was 0.0024 µM. Also, the 95% effect level in data set [2] (CEM cells) (EC95) was put at 26 µM. In addition, the EC50 in data set [2] (setting [5]) came to 6.9 µM. Besides, in data set [3], the CC50 was more than 100 µM.

The values above are taken from US5834506A, “Dihydropyrones with improved antiviral activity” (Warner-Lambert Company, priority 1997, dated 1998).
